Experimental data: patent US5861477A (priority 1996, dated 1999)
Entries after “also recorded” stand apart in the source; their conditions may differ. Like-named read-outs stand apart in the source and are kept apart here. Bridges are numbered along the chain shown (N, C = ends). Where no end group is shown, it is not given here.

Assays:
TrPepz = TrPepz (synthetic cyclic peptide catalyst mimicking the active site of trypsin); conditions: up to 3 hrs
[1] = Chymotryptic activity: hydrolysis of BTEE; type: biochemical; conditions: in words
Experimental: Chymotryptic activity. The catalytic activity of αCT and CHPepz was determined by hydrolysis of BTEE in 0.08M Tris buffer, pH 7.8 containing 0.01M CaCl2 as described (Hummel, B. C. W. (1959) Can. J. Biochem. Physiol. 37, 1393-1399). Assays were done at 25° C. using 8.06×10^-4 μmoles of αCT or 7.49×10^-4 μmoles of ChPepz and different substrate concentrations (from 3 to 6 mM) in a total reaction volume of 1.0 ml. The change of absorbance at 256 nm was monitored on a recording spectrophotometer against a reference cuvette containing 1 ml of the same concentration of BTEE, but without αCT or ChPepz.
1.0 ml of substrate (BTEE) was mixed with solutions (10 μl aliquots) of ChPepz, or negative control peptides (containing 1-10 μg/10 μl) or αCT and activity was monitored by increase in absorbance at 256 nm at 37° C. (or at room temperature).
ChPepz solution was made in 10^-3 N HCl, since it will not digest itself in this solvent. Solutions of ChPepz were always made immediately before use. […] After mixing ChPepz with substrate (BTEE), there was typically a lag of 2-5 min (depending on pepzyme/substrate ratio) before any change in A256 was observed. However, in the early stages of the purification, the activity needed to be monitored over a period of several hours. It was important to ensure that negative controls (containing unrelated peptides in amounts similar to those of ChPepz in the test samples) were also monitored at the same time because the background absorbance will increase and the test samples had to be corrected for this background. As the sample's purity improves, maximum A256 was achieved more quickly. See, e.g., Atassi, M. Z. in Immunochemistry of Proteins, ed. […]
Tryptic activity. […] Kinetic constants for hydrolysis of BTEE and TAME were determined from the linear plots of 1/initial velocity (Vi in μmoles/min) versus 1/substrate concentration as described (Lineweaver, H. and Burk, D. (1934) J. Amer. Chem. Soc. 56, 658).
Inhibition of Enzymatic Activity. […] Activities were monitored spectrophotometrically as above and were compared to uninhibited controls. […]

[2] = Tryptic activity: hydrolysis of TAME; type: biochemical; conditions: for Km / kcat / kcat /Km: hydrolysis of TAME, pH 8.0 and 25° C.
Experimental: Tryptic activity. Measurement of tryptic activity was done in 0.046M Tris-HCl buffer, pH 8.0, containing 0.0115M CaCl2 as described (Hummel, B. C. W. (1959), id) using TAME as the substrate. For the assays, 8.4×10^-4 μmoles of […] or 1.6 c 10^-3 μmoles of TrPepz were allowed to hydrolyze different amounts of substrate at 25° C. in a total reaction volume of 1.0 ml. […] Kinetic constants for hydrolysis of BTEE and TAME were determined from the linear plots of 1/initial velocity (Vi in μmoles/min) versus 1/substrate concentration as described (Lineweaver, H. and Burk, D. (1934) J. Amer. Chem. Soc. 56, 658).
To TAME solutions (1 ml containing different amounts of substrate), an aliquot (10 μl) of TrPepz, or negative control peptide solutions (containing 1-10 μg/10 μl) was added, mixed immediately and the increase of absorbance at 247 nm was measured at 37° C. (or at room temperature).
TrPepz solutions were always made immediately before use. Although TrPepz has no potential tryptic cleavage points, it lost activity on standing in solution at 4° C. […] TrPepz will not act on chromogenic substrates--it was inhibited by p-nitro analine (and probably is inhibited by other aromatic amines). After mixing TrPepz with substrate, there was a lag of 2-5 minutes (depending on pepzyme/substrate ratio) before any change in A247 was observed. In the early stages of the purification, the activity was always monitored over a period of several hours. Negative controls (containing unrelated peptides in amounts similar to those of TrPepz in the test samples) were also monitored at the same time because the background absorbance will increase and the test samples had to be corrected for this background. As the sample's purity improved, maximum A247 was achieved more quickly.
Inhibition of Enzymatic Activity. The effects of inhibitors or disulfide bond reduction on enzymatic activities were done as described above except that the enzymes were pre-mixed (3 hrs, 25° C.) with 10 molar excess of inhibitor (or DTT) prior to addition to the substrate (140-150 molar excess relative to the catalyst). Activities were monitored spectrophotometrically as above and were compared to uninhibited controls.
In addition, test were performed which compared the activity of the two proteases under differing temperature parameters.

myoglobin and casein = assay: Hydrolysis of proteins by enzymes or peptide enzyme catalysts (peptide maps); type: biochemical, sperm-whale (myoglobin), bovine (casein)
Experimental: Hydrolysis of Proteins by Enzymes or Peptide Enzyme Catalysts. Hydrolyses were done at 37° C. on aliquots (200 μl) containing 1 mg of myoglobin (5.6×10-2 μmoles) or casein (4.2×10^-2 μmoles) in 0.1M triethylamine-acetic acid buffer, pH 8.0 with 51 μg of αCT (2.06×10^-3 μmoles) and 2.9 μg of ChPepz (1.1×10^-3 μmoles) for 31/2 hrs or with 49 μg trypsin (2.06×10^-3 μmoles) and 5.0 μg TrPepz (1.87×10^-3 μmoles) for 8 hrs. The samples were then acidified (to pH 3.0) with 0.1M HCl freeze-dried and redissolved in 100 μl of H2 O at pH 3.0, and the entire sample was applied as a single spot to Whatman No. 3MM paper and subjected, in the first dimension, to ascending chromatography in n-butanol-acetic acid-water (4:1:5, vol/vol) followed by high voltage electrophoresis (3000 volts, 55 min), in the second dimension, in pyridine-acetic acid-water (1:10:289, vol/vol), pH 3.65, as described (Atassi, M. Z. and Saplin, B. J. (1968) Biochemistry 7, 688-698). The papers were then dried, steamed and stained with 0.2% ninhydrin in ethanol and the color was allowed to develop at room temperature. The papers were photographed 48 hrs after staining.

[3] = test system: model peptides (SEQ ID NO:7-10); assay: Action of TrPepz on model peptides; type: biochemical
[4] = Loss of pepzyme activity on storage in solution and on freezing and thawing; type: physicochemical
Experimental: ChPepz solution was made in 10^-3 N HCl, since it will not digest itself in this solvent. Solutions of ChPepz were always made immediately before use. […] After mixing ChPepz with substrate (BTEE), there was typically a lag of 2-5 min (depending on pepzyme/substrate ratio) before any change in A256 was observed. However, in the early stages of the purification, the activity needed to be monitored over a period of several hours. It was important to ensure that negative controls (containing unrelated peptides in amounts similar to those of ChPepz in the test samples) were also monitored at the same time because the background absorbance will increase and the test samples had to be corrected for this background. As the sample's purity improves, maximum A256 was achieved more quickly. See, e.g., Atassi, M. Z. in Immunochemistry of Proteins, ed. M. Z. Atassi, Vol. 2, pp. 77-176, Plenum, New York, N.Y. (1977); King, D. S., et al. Int. J. Pept. Prot. Res. 36: 255-266 (1990).
TrPepz solutions were always made immediately before use. […] In the early stages of the purification, the activity was always monitored over a period of several hours. Negative controls (containing unrelated peptides in amounts similar to those of TrPepz in the test samples) were also monitored at the same time because the background absorbance will increase and the test samples had to be corrected for this background. […]

[5] = TAME, pH 8.0 and 25° C., cited from earlier work

In the case of QLEPSTSSAVPLIGKG, the cleaved bond (TrPepz) is reported as “Lys-Gly”.

In the case of “cyclo(-S-cystinyl-glycyl-tyrosyl-histidyl-phenylalanyl-glycyl-glycyl-seryl- aspartyl-glycyl-glutamyl-glycyl-seryl-aspartyl-glycyl-glycyl-valyl-seryl-tryptophanyl-glycyl-leucyl-glycyl-glycyl-aspartyl-glycyl-alanyl-alanyl-histidyl-cystinyl-S) (CGYHFGGSDGEGSDGGVSWGLGGDGAAHC; disulfide 1-29) [TrPepz]”, the “hydrolytic activity on BTEE” value [1] is reported as “zero activity; also recorded: no effect; also recorded: not hydrolyzed; also recorded: not hydrolysed”, the “activity on TAME after reduction of the disulfide bond (cyclic structure)” value ([2]; 10 molar excess of DTT) is reported as “zero activity; also recorded: fully inactivated; also recorded: completely lost” and the “activity on TAME in presence of TPCK” value ([2]; 10 molar excess of TPCK) is reported as “the two curves superimposed; also recorded: not by TPCK; also recorded: not affected”. For the same molecule, the “activity on TAME in presence of BPTI” value ([2]; 10 molar excess of inhibitor) was “zero activity; also recorded: completely inhibited; also recorded: inhibited entirely”, the “activity on TAME in presence of DIFP” value ([2]; 10 molar excess of inhibitor) was “zero activity; also recorded: fully inactivated; also recorded: inhibited entirely; also recorded: completely inhibited” and the “activity on TAME in presence of PMSF” value ([2]; 10 molar excess of inhibitor) was “zero activity; also recorded: fully inactivated; also recorded: inhibited entirely; also recorded: completely inhibited”. The “activity on TAME in presence of human α1 -antitrypsin” value ([2]; 10 molar excess of inhibitor) was “zero activity; also recorded: completely inhibited; also recorded: inhibited entirely”, the “activity on TAME in presence of soybean trypsin inhibitor” value ([2]; 10 molar excess of inhibitor) was “completely inhibited; also recorded: inhibited entirely” and the “% Activity of Native Enzyme at 35° C.” value ([2]; Temp. 10) was 7.4%. The “% Activity of Native Enzyme at 35° C.” value ([2]; Temp. 35) was “approx. 40%”, the “% Activity of Native Enzyme at 35° C.” value ([2]; Temp. 48) was “approx. 50%” and the “lag before any change in A247” value ([2]; after mixing with substrate, depends on pepzyme/substrate ratio) was 2 to 5 min. The Km [2] was 2.42 ± 0.09 mM, the kcat [2] was 85 ± 2.6 sec.^-1 and the “kcat /Km” value [2] was 35000 M⁻¹ s⁻¹. For the same molecule, the “rate of TAME hydrolysis relative to the rate obtained with the enzyme itself” value ([2]; relative to trypsin) was “about 40%”, the “inhibition by p-nitro analine” value ([2]; will not act on chromogenic substrates) was “inhibited” and the “hydrolysis of myoglobin and casein, peptides compared with those of the respective enzyme” value (myoglobin and casein; 37° C., pH 8.0, 3 1/2 hrs (ChPepz) or 8 hrs (TrPepz)) was “essentially the same as the pattern of the respective protein obtained by tryptic hydrolysis”. For the same molecule, the “proteolytic activity in presence of DIFP” value (myoglobin and casein; protein substrates) was “completely inhibited”, the “proteolytic activity in presence of PMSF” value (myoglobin and casein; protein substrates) was “completely inhibited” and the “proteolytic activity in presence of TPCK” value (myoglobin and casein; protein substrates) was “no effect”. For the same molecule, the “efficiency at hydrolyzing Lys-Lys, Lys-Lys-Lys, Arg-Lys and Lys-Arg bonds compared with trypsin” value (myoglobin and casein; yields of lysine and arginine in hydrolysates) was “more efficient than trypsin”, the “hydrolysis of the Lys-Gly bond of peptide SEQ ID NO:7” value ([3]; 3 hrs, molar ratio of substrate/TrPepz, 1:60) was “over 95%” and the “cleavage of lysozyme sequences SEQ ID NO:8, 9, 10 at the C-bond of lysine and arginine” value ([3]; no other products) was “completely cleaved”. For the same molecule, the “freezing and thawing cycles to complete loss of activity” value [4] was 5 cycles and the “time to complete loss of activity on storage in solution” value ([4]; 4° C.) was “two”.

With DNYRGYSLG the cleaved bond (TrPepz) was “Arg-Gly”.

B1: Trypsin: native bovine trypsin (TPCK-trypsin, Worthington), positive control (protein, UniProt P00760 24-246, looked up)
Serine protease 1: IVGGYTCGANTVPYQVSLNSGYHFCGGSLINSQWVVSAAHCYKSGIQVRLGEDNINVVEGNEQFISASKSIVHPSYNSNTLNNDIMLIKLKSAASLNSRVASISLPTSCASAGTQCLISGWGNTKSSGTSYPDVLKCLKAPILSDSSCKSAYPGQITSNMFCAGYLEGGKDSCQGDSGGPVVCSGKLQGIVSWGSGCAQKNKPGVYTKVCNYVSWIKQTIASN
modifications: TPCK-treated
notes: native bovine trypsin (TPCK-trypsin, Worthington), positive control
With B1 the “hydrolytic activity on BTEE” value [1] was “zero activity; also recorded: does not hydrolyze”, the “hydrolytic activity on BTEE” value ([1]; listed as trypsin) was “not hydrolysed” and the “% Activity of Native Enzyme at 35° C.” value ([2]; Temp. 10) was 4.5%. For the same molecule, the “% Activity of Native Enzyme at 35° C.” value ([2]; Temp. 35) was 100%, the “% Activity of Native Enzyme at 35° C.” value ([2]; Temp. 48) was 67% and the Km [2] was 2.56 ± 0.16 mM. For the same molecule, the kcat [2] was 221 ± 9.7 sec.^-1, the “kcat /Km” value [2] was 86000 M⁻¹ s⁻¹ and the kcat ([2]; listed as trypsin) was 221 sec.^-1. The “hydrolytic activity on TAME” value ([2]; in words) was “hydrolyzes”, the Km ([5]; Lorand et al. 1961, read-out: Km reported value) was 2.76 mM and the kcat reported value ([5]; Martin et al. 1959) was 187 s⁻¹.
